# Assay results published in PMC7217030 (Journal of medicinal chemistry, 2018).
# Columns and labels:
# [1] = molecular target: T1, vitamin D receptor (VDR) LBD fused to GAL4 DBD (Homo sapiens, UniProt P11473); experiment: GeneBLAzer nuclear hormone receptor specificity assay, agonist mode, VDR; assay type: cell-based; settings: 0.25 to 25 μM
# T1 sequence (P11473 127-423 limits assumed): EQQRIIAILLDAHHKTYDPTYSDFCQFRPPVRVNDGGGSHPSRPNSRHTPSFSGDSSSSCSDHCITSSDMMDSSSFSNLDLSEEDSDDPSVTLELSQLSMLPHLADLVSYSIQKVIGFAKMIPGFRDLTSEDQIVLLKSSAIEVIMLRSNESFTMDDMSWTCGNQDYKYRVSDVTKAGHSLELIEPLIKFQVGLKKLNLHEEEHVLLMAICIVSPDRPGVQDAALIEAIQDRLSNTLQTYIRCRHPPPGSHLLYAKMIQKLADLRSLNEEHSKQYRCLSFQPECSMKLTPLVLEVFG
# [2] = molecular target: T2, androgen receptor (AR) LBD fused to GAL4 DBD (Homo sapiens, UniProt P10275); experiment: GeneBLAzer nuclear hormone receptor specificity assay, agonist mode, AR; assay type: cell-based; settings: 0.25 to 25 μM
# T2 sequence (P10275 669-900 limits assumed): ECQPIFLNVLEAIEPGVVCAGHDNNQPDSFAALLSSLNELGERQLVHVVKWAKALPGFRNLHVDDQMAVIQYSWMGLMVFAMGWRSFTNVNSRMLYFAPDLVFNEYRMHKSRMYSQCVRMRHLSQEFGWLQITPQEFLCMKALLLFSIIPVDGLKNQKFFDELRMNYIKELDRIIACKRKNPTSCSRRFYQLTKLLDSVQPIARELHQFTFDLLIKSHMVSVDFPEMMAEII
# ovariectomized mice [3] = experiment: Object placement task; settings: for time with moved object vs chance, object placement: tested 24 h after training; for preference for moved object vs chance, object placement: within 1 month of ovariectomy
# ERα LBD = molecular target: T3, ERα LBD (Homo sapiens, UniProt P03372); experiment: LanthaScreen TR-FRET coactivator; assay type: biochemical
# T3 sequence (P03372 311-547 limits assumed): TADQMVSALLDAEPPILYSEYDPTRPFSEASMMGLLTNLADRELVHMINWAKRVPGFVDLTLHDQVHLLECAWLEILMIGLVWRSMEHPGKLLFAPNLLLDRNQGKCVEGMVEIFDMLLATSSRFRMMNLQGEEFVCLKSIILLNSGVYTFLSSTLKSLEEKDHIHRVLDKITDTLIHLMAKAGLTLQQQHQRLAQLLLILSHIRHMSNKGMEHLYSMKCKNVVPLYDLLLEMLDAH
# [4] = molecular target: T4, thyroid hormone receptor (TRβ) LBD fused to GAL4 DBD (Homo sapiens, UniProt P10828); experiment: GeneBLAzer nuclear hormone receptor specificity assay, agonist mode, TRβ; assay type: cell-based; settings: 0.25 to 25 μM
# T4 sequence (P10828 217-461 limits assumed): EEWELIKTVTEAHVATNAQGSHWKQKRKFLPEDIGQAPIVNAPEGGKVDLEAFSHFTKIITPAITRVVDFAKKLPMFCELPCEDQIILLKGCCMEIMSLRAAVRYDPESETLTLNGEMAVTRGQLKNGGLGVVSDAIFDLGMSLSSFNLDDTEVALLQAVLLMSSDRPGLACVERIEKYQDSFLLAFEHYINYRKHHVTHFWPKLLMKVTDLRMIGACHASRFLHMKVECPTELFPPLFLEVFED
# [5] = molecular target: T5, progesterone receptor (PR) LBD fused to GAL4 DBD (Homo sapiens, UniProt P06401); experiment: GeneBLAzer nuclear hormone receptor specificity assay, agonist mode, PR; assay type: cell-based; settings: 0.25 to 25 μM
# T5 sequence (P06401 679-913 limits assumed): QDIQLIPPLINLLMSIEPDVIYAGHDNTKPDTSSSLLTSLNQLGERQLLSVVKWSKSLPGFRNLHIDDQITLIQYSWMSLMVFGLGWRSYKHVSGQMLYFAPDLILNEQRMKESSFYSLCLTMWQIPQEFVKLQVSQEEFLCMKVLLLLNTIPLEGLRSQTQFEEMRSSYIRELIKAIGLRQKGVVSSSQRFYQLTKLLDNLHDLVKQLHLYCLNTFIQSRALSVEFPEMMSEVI
# CYP1A2 = molecular target: T6, CYP1A2 (Homo sapiens, UniProt P05177); experiment: P450-Glo cytochrome P450 inhibition, CYP1A2; assay type: in vitro ADME; settings: highest concentration 62.5 μM
# T6 sequence (P05177 1-516): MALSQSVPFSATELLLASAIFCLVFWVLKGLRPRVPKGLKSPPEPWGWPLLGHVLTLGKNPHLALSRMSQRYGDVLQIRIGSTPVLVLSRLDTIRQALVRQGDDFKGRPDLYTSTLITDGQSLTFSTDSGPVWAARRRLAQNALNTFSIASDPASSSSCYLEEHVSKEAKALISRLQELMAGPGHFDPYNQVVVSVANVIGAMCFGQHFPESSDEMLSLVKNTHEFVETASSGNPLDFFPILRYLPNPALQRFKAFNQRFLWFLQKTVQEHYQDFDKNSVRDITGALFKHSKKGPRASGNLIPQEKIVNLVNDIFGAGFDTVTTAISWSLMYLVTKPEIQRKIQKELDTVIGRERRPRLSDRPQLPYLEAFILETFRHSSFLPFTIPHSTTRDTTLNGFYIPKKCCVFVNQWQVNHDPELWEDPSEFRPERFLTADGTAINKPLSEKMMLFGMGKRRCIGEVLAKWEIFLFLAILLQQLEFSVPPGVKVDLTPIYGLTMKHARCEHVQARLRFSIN
# [6] = molecular target: T7, mineralocorticoid receptor (MR) LBD fused to GAL4 DBD (Homo sapiens, UniProt P08235); experiment: GeneBLAzer nuclear hormone receptor specificity assay, agonist mode, MR; assay type: cell-based; settings: 0.25 to 25 μM
# T7 sequence (P08235 726-964 limits assumed): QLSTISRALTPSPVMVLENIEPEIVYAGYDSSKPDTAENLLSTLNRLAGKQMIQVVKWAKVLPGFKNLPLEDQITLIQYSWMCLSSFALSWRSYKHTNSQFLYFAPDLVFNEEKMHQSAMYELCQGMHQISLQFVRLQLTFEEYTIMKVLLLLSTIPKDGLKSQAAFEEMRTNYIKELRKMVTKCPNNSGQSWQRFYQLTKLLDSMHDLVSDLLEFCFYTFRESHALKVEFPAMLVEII
# [7] = molecular target: T8, full length and native ERα (Homo sapiens, UniProt P03372); experiment: Cell-based transcriptional assay, ERα antagonist mode; settings: concentrations up to 10 μM
# T8 sequence (P03372 1-595): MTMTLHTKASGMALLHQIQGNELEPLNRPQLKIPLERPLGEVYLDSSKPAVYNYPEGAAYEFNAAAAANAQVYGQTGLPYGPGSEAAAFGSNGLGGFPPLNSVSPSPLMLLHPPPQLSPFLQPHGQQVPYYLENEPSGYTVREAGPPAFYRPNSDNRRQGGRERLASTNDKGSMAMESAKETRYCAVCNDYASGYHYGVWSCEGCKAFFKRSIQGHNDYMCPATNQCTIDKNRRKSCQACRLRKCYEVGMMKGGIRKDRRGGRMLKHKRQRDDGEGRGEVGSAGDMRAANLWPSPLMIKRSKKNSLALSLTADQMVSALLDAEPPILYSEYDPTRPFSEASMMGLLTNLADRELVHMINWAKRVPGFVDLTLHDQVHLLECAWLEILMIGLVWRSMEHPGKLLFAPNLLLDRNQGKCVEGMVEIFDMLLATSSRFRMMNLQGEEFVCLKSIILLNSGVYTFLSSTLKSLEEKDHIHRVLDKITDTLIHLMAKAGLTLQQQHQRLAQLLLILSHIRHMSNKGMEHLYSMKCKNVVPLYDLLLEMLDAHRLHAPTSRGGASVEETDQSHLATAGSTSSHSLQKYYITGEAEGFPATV
# CYP2D6 = CYP2D6 (Homo sapiens, UniProt P10635); experiment: P450-Glo cytochrome P450 inhibition, CYP2D6; assay type: in vitro ADME; settings: highest concentration 62.5 μM
# ovariectomized mice [8] = experiment: Object recognition task; settings: for preference for novel object vs chance, object recognition: IP injection
# [9] = molecular target: T9, peroxisome proliferator-activated receptor (PPARδ) LBD fused to GAL4 DBD (Homo sapiens, UniProt Q03181); experiment: GeneBLAzer nuclear hormone receptor specificity assay, agonist mode, PPARδ; assay type: cell-based; settings: 0.25 to 25 μM
# T9 sequence (Q03181 211-439 limits assumed): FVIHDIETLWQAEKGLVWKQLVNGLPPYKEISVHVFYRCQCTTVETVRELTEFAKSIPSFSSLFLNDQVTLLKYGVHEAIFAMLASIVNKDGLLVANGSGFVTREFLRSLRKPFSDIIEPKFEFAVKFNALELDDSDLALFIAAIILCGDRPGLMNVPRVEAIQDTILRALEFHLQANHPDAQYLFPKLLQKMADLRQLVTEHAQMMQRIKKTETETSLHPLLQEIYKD
# [10] = molecular target: T10, glucocorticoid receptor (GR) LBD fused to GAL4 DBD (Homo sapiens, UniProt P04150); experiment: GeneBLAzer nuclear hormone receptor specificity assay, agonist mode, GR; assay type: cell-based; settings: 0.25 to 25 μM
# T10 sequence (P04150 524-758 limits assumed): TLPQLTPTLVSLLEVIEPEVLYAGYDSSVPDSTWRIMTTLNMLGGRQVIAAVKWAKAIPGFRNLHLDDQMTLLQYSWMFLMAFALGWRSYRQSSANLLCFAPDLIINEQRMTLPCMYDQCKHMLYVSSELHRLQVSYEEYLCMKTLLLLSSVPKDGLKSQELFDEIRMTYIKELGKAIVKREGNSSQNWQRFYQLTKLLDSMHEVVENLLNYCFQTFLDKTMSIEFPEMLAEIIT
# Sequence of CYP2D6 (P10635 whole entry): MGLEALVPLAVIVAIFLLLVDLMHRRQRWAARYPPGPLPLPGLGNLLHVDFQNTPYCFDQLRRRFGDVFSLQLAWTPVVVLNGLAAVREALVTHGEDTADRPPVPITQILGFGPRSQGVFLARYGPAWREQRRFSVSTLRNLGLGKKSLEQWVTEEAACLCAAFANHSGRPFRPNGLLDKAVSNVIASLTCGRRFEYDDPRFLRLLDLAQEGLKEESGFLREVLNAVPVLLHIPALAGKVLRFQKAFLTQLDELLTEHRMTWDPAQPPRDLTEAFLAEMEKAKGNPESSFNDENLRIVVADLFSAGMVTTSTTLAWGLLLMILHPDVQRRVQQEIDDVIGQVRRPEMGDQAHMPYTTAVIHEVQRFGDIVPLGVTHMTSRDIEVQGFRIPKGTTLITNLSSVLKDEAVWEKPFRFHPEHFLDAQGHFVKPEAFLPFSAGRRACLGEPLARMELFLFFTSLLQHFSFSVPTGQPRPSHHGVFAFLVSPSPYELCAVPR
structure (smiles),measurement,setting,value
OC[C@H]1CC[C@H](c2ccc(O)cc2)CC1 [ISP358–2],agonist activity at VDR,[1],not an agonist
same,agonist activity at AR,[2],not an agonist
same,"time with moved object vs chance, object placement","ovariectomized mice [3]; IP injection, 0.5 mg/kg",spent significantly more time than chance with the moved object
same,"time with moved object vs chance, object placement","ovariectomized mice [3]; IP injection, 5 mg/kg",spent significantly more time than chance with the moved object
same,"time with moved object vs chance, object placement","ovariectomized mice [3]; dorsal hippocampal infusion, 10 pg/hemisphere",did not spend significantly more time than chance with the moved object
same,"time with moved object vs chance, object placement","ovariectomized mice [3]; dorsal hippocampal infusion, 100 pg/hemisphere",spent significantly more time than chance with the moved object
same,"time with moved object vs chance, object placement","ovariectomized mice [3]; dorsal hippocampal infusion, 1 ng/hemisphere",spent significantly more time than chance with the moved object
same,"preference for moved object vs chance, object placement","ovariectomized mice [3]; oral gavage, 0.5 mg/kg",exhibited a significant preference for the moved object relative to chance
same,"preference for moved object vs chance, object placement","ovariectomized mice [3]; oral gavage, 5 mg/kg",exhibited a significant preference for the moved object relative to chance
same,"spatial memory consolidation after long-term estrogen deprivation, object placement","ovariectomized mice [3]; oral gavage, same doses, 4 months after ovariectomy, preliminary",did not enhance spatial memory consolidation
same,EC50,ERα LBD,2940 nM
same,agonist activity at TRβ,[4],not an agonist
same,agonist activity at PR,[5],not an agonist
same,inhibition of CYP1A2,CYP1A2,no inhibition
same,agonist activity at MR,[6],not an agonist
same,ERα antagonist activity,[7],No measurable antagonist activity
same,inhibition of CYP2D6,CYP2D6,no inhibition
same,"preference for novel object vs chance, object recognition","ovariectomized mice [8]; 0.5 mg/kg, tested 48 h after training",exhibited a significant preference for the novel object relative to chance
same,"preference for novel object vs chance, object recognition","ovariectomized mice [8]; 5 mg/kg, tested 48 h after training",somewhat of a trend for the 5 mg/kg ISP358–2 to prefer the novel object
same,"time with novel object vs chance, object recognition","ovariectomized mice [8]; dorsal hippocampal infusion, 10 pg/hemisphere, tested 48 h after training",Neither the vehicle nor 10 pg of ISP358–2 groups showed a preference for the novel object
same,"time with novel object vs chance, object recognition","ovariectomized mice [8]; dorsal hippocampal infusion, 100 pg/hemisphere, tested 48 h after training",spent significantly more time than chance with the novel object
same,"time with novel object vs chance, object recognition","ovariectomized mice [8]; dorsal hippocampal infusion, 1 ng/hemisphere, tested 48 h after training",spent significantly more time than chance with the novel object
same,"time with novel object vs chance, object recognition","ovariectomized mice [8]; oral gavage, 0.5 mg/kg",spent significantly more time with the novel object relative to chance
same,"time with novel object vs chance, object recognition","ovariectomized mice [8]; oral gavage, 5 mg/kg",spent significantly more time with the novel object relative to chance
same,agonist activity at PPARδ,[9],not an agonist
same,agonist activity at GR,[10],not an agonist
